# Experimental data published in PubChem BioAssay (NCI).
#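 Each compound was tested at five concentrations against cells in 96-well plates for 48 hours. The concentration for full growth arrest is given as TGI.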 Where a SMILES comes first, the peptide text is derived from it. The star is where a group is joined. Cbz = O=C(OCc1ccccc1)*; Boc = CC(C)(C)OC(=O)*; Bn = c1ccc(C*)cc1
# Experiments:
# Assay in all cases: inhibition of tumour cell growth, NCI panel, 48 h
# KM12 colon = tested on: KM12 colon
# CCRF-CEM leukemia = tested on: CCRF-CEM leukemia
# OVCAR-4 ovarian = tested on: OVCAR-4 ovarian
# SR leukemia = tested on: SR leukemia
# NCI-H23 lung = tested on: NCI-H23 lung
# A498 renal = tested on: A498 renal
# SF-539 CNS = tested on: SF-539 CNS
# RXF 393 renal = tested on: RXF 393 renal
# CAKI-1 renal = tested on: CAKI-1 renal
# SW-620 colon = tested on: SW-620 colon
# MDA-MB-435 = tested on: MDA-MB-435
# SK-MEL-28 melanoma = tested on: SK-MEL-28 melanoma
# HOP-62 NSCLC = tested on: HOP-62 NSCLC
# UACC-257 melanoma = tested on: UACC-257 melanoma
# RPMI-8226 leukemia = tested on: RPMI-8226 leukemia
# LOX IMVI melanoma = tested on: LOX IMVI melanoma
# HCC-2998 colon = tested on: HCC-2998 colon
# MOLT-4 leukemia = tested on: MOLT-4 leukemia
# BT-549 breast = tested on: BT-549 breast
# NCI-H226 lung = tested on: NCI-H226 lung
# SNB-19 CNS = tested on: SNB-19 CNS
# HT29 colon = tested on: HT29 colon
# OVCAR-5 ovarian = tested on: OVCAR-5 ovarian
# SF-268 CNS = tested on: SF-268 CNS
# NCI-H460 lung = tested on: NCI-H460 lung
# OVCAR-3 ovarian = tested on: OVCAR-3 ovarian
# TK-10 renal = tested on: TK-10 renal
# HCT-116 colon = tested on: HCT-116 colon
# COLO 205 colon = tested on: COLO 205 colon
# T-47D breast = tested on: T-47D breast
# UACC-62 melanoma = tested on: UACC-62 melanoma
# UO-31 renal = tested on: UO-31 renal
# SNB-75 CNS = tested on: SNB-75 CNS
# 786-0 renal = tested on: 786-0 renal
# MDA-MB-231 breast = tested on: MDA-MB-231 breast
# OVCAR-8 ovarian = tested on: OVCAR-8 ovarian
# SN12C renal = tested on: SN12C renal
# EKVX NSCLC = tested on: EKVX NSCLC
# K-562 leukemia = tested on: K-562 leukemia
# IGROV1 ovarian = tested on: IGROV1 ovarian
# MDA-N = tested on: MDA-N
# MCF7 breast = tested on: MCF7 breast
# SK-OV-3 ovarian = tested on: SK-OV-3 ovarian
# ACHN renal = tested on: ACHN renal
# DU-145 prostate = tested on: DU-145 prostate
# MALME-3M melanoma = tested on: MALME-3M melanoma
# HL-60(TB) leukemia = tested on: HL-60(TB) leukemia
# U251 CNS = tested on: U251 CNS
# HCT-15 colon = tested on: HCT-15 colon
# SK-MEL-5 melanoma = tested on: SK-MEL-5 melanoma
# SF-295 CNS = tested on: SF-295 CNS
# A549 NSCLC = tested on: A549 NSCLC
# NCI/ADR-RES ovarian = tested on: NCI/ADR-RES ovarian
# SK-MEL-2 melanoma = tested on: SK-MEL-2 melanoma
# HS 578T breast = tested on: HS 578T breast
# HOP-92 NSCLC = tested on: HOP-92 NSCLC
# M14 melanoma = tested on: M14 melanoma
# PC-3 prostate = tested on: PC-3 prostate
smiles,measurement,setting,value
CN1CCN(c2cc3c(cc2F)c(=O)c(C(=O)O)cn3C2CC2)CC1CC#N (stereo not given),TGI,KM12 colon,> 100 µM
same,TGI,CCRF-CEM leukemia,> 100 µM
same,TGI,OVCAR-4 ovarian,> 100 µM
same,TGI,SR leukemia,> 100 µM
same,TGI,NCI-H23 lung,> 100 µM
same,TGI,A498 renal,> 100 µM
same,TGI,SF-539 CNS,> 100 µM
same,TGI,RXF 393 renal,> 100 µM
same,TGI,CAKI-1 renal,> 100 µM
same,TGI,SW-620 colon,> 100 µM
same,TGI,MDA-MB-435,> 100 µM
same,TGI,SK-MEL-28 melanoma,> 100 µM
same,TGI,HOP-62 NSCLC,> 100 µM
same,TGI,UACC-257 melanoma,> 100 µM
same,TGI,RPMI-8226 leukemia,> 100 µM
same,TGI,LOX IMVI melanoma,> 100 µM
same,TGI,HCC-2998 colon,> 100 µM
same,TGI,MOLT-4 leukemia,> 100 µM
same,TGI,BT-549 breast,> 100 µM
same,TGI,NCI-H226 lung,> 100 µM
same,TGI,SNB-19 CNS,> 100 µM
same,TGI,HT29 colon,> 100 µM
same,TGI,OVCAR-5 ovarian,> 100 µM
same,TGI,SF-268 CNS,> 100 µM
same,TGI,NCI-H460 lung,> 100 µM
same,TGI,OVCAR-3 ovarian,> 100 µM
same,TGI,TK-10 renal,> 100 µM
same,TGI,HCT-116 colon,> 100 µM
same,TGI,COLO 205 colon,> 100 µM
same,TGI,T-47D breast,> 100 µM
same,TGI,UACC-62 melanoma,> 100 µM
same,TGI,UO-31 renal,> 100 µM
same,TGI,SNB-75 CNS,> 100 µM
same,TGI,786-0 renal,> 100 µM
same,TGI,MDA-MB-231 breast,> 100 µM
same,TGI,OVCAR-8 ovarian,> 100 µM
same,TGI,SN12C renal,> 100 µM
same,TGI,EKVX NSCLC,> 100 µM
same,TGI,K-562 leukemia,> 100 µM
same,TGI,IGROV1 ovarian,> 100 µM
same,TGI,MDA-N,> 100 µM
same,TGI,MCF7 breast,> 100 µM
same,TGI,SK-OV-3 ovarian,> 100 µM
same,TGI,ACHN renal,> 100 µM
same,TGI,DU-145 prostate,> 100 µM
same,TGI,MALME-3M melanoma,> 100 µM
same,TGI,HL-60(TB) leukemia,> 100 µM
same,TGI,U251 CNS,> 100 µM
same,TGI,HCT-15 colon,> 100 µM
same,TGI,SK-MEL-5 melanoma,> 100 µM
same,TGI,SF-295 CNS,> 100 µM
same,TGI,A549 NSCLC,> 100 µM
same,TGI,NCI/ADR-RES ovarian,> 100 µM
CC(C)(C)OC(=O)NC(Cc1ccc(OCc2ccccc2)cc1)C(=O)NC(CCCCNC(=O)OCc1ccccc1)C(=O)O (stereo not given) (Boc-Tyr(Bn)-Lys(Cbz)-OH; configuration not given here),TGI,KM12 colon,> 100 µM
same,TGI,CCRF-CEM leukemia,> 100 µM
same,TGI,SR leukemia,89.6 µM
same,TGI,NCI-H23 lung,> 100 µM
same,TGI,RXF 393 renal,> 100 µM
same,TGI,SW-620 colon,> 100 µM
same,TGI,SK-MEL-2 melanoma,80 µM
same,TGI,SK-MEL-28 melanoma,44.2 µM
same,TGI,HOP-62 NSCLC,> 100 µM
same,TGI,UACC-257 melanoma,> 100 µM
same,TGI,RPMI-8226 leukemia,> 100 µM
same,TGI,HCC-2998 colon,> 100 µM
same,TGI,HS 578T breast,> 100 µM
same,TGI,MOLT-4 leukemia,85.1 µM
same,TGI,BT-549 breast,60.8 µM
same,TGI,NCI-H226 lung,> 100 µM
same,TGI,SNB-19 CNS,> 100 µM
same,TGI,HT29 colon,> 100 µM
same,TGI,OVCAR-5 ovarian,> 100 µM
same,TGI,HOP-92 NSCLC,48.5 µM
same,TGI,TK-10 renal,> 100 µM
same,TGI,HCT-116 colon,> 100 µM
same,TGI,COLO 205 colon,> 100 µM
same,TGI,UACC-62 melanoma,43.9 µM
same,TGI,UO-31 renal,> 100 µM
same,TGI,SNB-75 CNS,> 100 µM
same,TGI,786-0 renal,> 100 µM
same,TGI,M14 melanoma,> 100 µM
same,TGI,MDA-MB-231 breast,> 100 µM
same,TGI,OVCAR-8 ovarian,> 100 µM
same,TGI,SN12C renal,> 100 µM
same,TGI,EKVX NSCLC,> 100 µM
same,TGI,K-562 leukemia,> 100 µM
same,TGI,IGROV1 ovarian,> 100 µM
same,TGI,MDA-N,> 100 µM
same,TGI,MCF7 breast,> 100 µM
same,TGI,MALME-3M melanoma,> 100 µM
same,TGI,HL-60(TB) leukemia,86.9 µM
same,TGI,U251 CNS,> 100 µM
same,TGI,SK-MEL-5 melanoma,> 100 µM
same,TGI,PC-3 prostate,> 100 µM
same,TGI,A549 NSCLC,> 100 µM
